# Reference: patent US10721934B2, “Enhanced preservative” (Arch Chemicals, Inc., priority 2013, dated 2020)
# How the values were obtained:
# Format in all cases: cell-based
# [1] = tested on: mixed bacterial inoculum (Pseudomonas aeruginosa, Enterobacter cloacae, Escherichia coli, Acinetobacter calcoaceticus); test: Repeated inoculation of standard acrylic paint, streak plate rating
# Description: In the following experiments, a pyrithione, an isothiazolinone, and a biocide enhancing agent in accordance with the present disclosure were combined with a standard acrylic paint. The concentrations of the pyrithione, the isothiazolinone and the biocide enhancing agent were varied. The pyrithione, the isothiazolinone and the biocide enhancing agent were added alone and in various mixtures to the standard acrylic paint.
# The acrylic paint was then inoculated three times using a mixed bacterial inoculum. The bacterial inoculum, which comprised a bacterial suspension in water, contained the following four bacteria in equal proportions.
# The samples were streak plated at 24, 48, and 72 hours after inoculation. The streak plates were rated as follows;
# [2] = tested on: Staphylococcus aureus; test: MIC test, 96 well microtiter plate; conditions: Staphylococcus aureus, read-out: Minimum Inhibitory Concentration
# Description: (§1) MIC set up: A 96 well microtiter plate Minimum Inhibitory Concentration (MIC) test was run in broth suitable for the test organism. Serially diluted actives were prepared in sterilized water, and the start-up concentration varied depending on the efficacy range. Inocula prepared in 2× suitable broth was added into each well, and the final concentrations of bacteria were adjusted to approximately 5×10^5.
# (§2) Further MIC tests were conducted using different amine compounds in combination with a pyrithione and two different isothiazolinones. The procedures described in Example No. 1 were used.
# [3] = tested on: Aureobasidium pullulans; test: MIC test, 96 well microtiter plate; conditions: Aureobasidium pullulans, read-out: Minimum Inhibitory Concentration
# Description: as §1, §2
# [4] = tested on: Aspergillus brasiliensis; test: MIC test, 96 well microtiter plate; conditions: Aspergillus brasiliensis, read-out: Minimum Inhibitory Concentration
# Description: as §1, §2
# [5] = tested on: Candida albicans; test: MIC test, 96 well microtiter plate; conditions: Candida albicans, read-out: Minimum Inhibitory Concentration
# Description: as §1, §2
# [6] = tested on: Escherichia coli; test: MIC test, 96 well microtiter plate; conditions: Escherichia coli, read-out: Minimum Inhibitory Concentration
# Description: as §1, §2
structure (smiles),measurement,setting,value
"CCCCCCCCCCCC[N+](C)(C)[O-] [CDMA Oxide, cocodimethylamine oxide]",streak plate rating,"[1]; Set Five, CDMA Oxide 1200 ppm, 1st inoculation 24 h",5 (>45 viable microorganisms Severely contaminated)
same,streak plate rating,"[1]; Set Five, CDMA Oxide 1200 ppm, 1st inoculation 48 h",5 (>45 viable microorganisms Severely contaminated)
same,streak plate rating,"[1]; Set Five, CDMA Oxide 1200 ppm, 1st inoculation 72 h",5 (>45 viable microorganisms Severely contaminated)
same,streak plate rating,"[1]; Set Five, CDMA Oxide 1200 ppm, 2nd inoculation 24 h",5 (>45 viable microorganisms Severely contaminated)
same,streak plate rating,"[1]; Set Five, CDMA Oxide 1200 ppm, 2nd inoculation 48 h",5 (>45 viable microorganisms Severely contaminated)
same,streak plate rating,"[1]; Set Five, CDMA Oxide 1200 ppm, 2nd inoculation 72 h",5 (>45 viable microorganisms Severely contaminated)
same,streak plate rating,"[1]; Set Five, CDMA Oxide 1200 ppm, 3rd inoculation 24 h",5 (>45 viable microorganisms Severely contaminated)
same,streak plate rating,"[1]; Set Five, CDMA Oxide 1200 ppm, 3rd inoculation 48 h",5 (>45 viable microorganisms Severely contaminated)
same,streak plate rating,"[1]; Set Five, CDMA Oxide 1200 ppm, 3rd inoculation 72 h",5 (>45 viable microorganisms Severely contaminated)
same,streak plate rating,"[1]; Set Two, CDMA Oxide alone, ppm not given, 1st inoculation 24 h",5 (>45 viable microorganisms Severely contaminated)
same,streak plate rating,"[1]; Set Two, CDMA Oxide alone, ppm not given, 1st inoculation 48 h",5 (>45 viable microorganisms Severely contaminated)
same,streak plate rating,"[1]; Set Two, CDMA Oxide alone, ppm not given, 1st inoculation 72 h",5 (>45 viable microorganisms Severely contaminated)
same,streak plate rating,"[1]; Set Two, CDMA Oxide alone, ppm not given, 2nd inoculation 24 h",5 (>45 viable microorganisms Severely contaminated)
same,streak plate rating,"[1]; Set Two, CDMA Oxide alone, ppm not given, 2nd inoculation 48 h",5 (>45 viable microorganisms Severely contaminated)
same,streak plate rating,"[1]; Set Two, CDMA Oxide alone, ppm not given, 2nd inoculation 72 h",5 (>45 viable microorganisms Severely contaminated)
same,streak plate rating,"[1]; Set Two, CDMA Oxide alone, ppm not given, 3rd inoculation 24 h",5 (>45 viable microorganisms Severely contaminated)
same,streak plate rating,"[1]; Set Two, CDMA Oxide alone, ppm not given, 3rd inoculation 48 h",5 (>45 viable microorganisms Severely contaminated)
same,streak plate rating,"[1]; Set Two, CDMA Oxide alone, ppm not given, 3rd inoculation 72 h",5 (>45 viable microorganisms Severely contaminated)
same,MIC,[2],13.9 µg/mL
same,MIC,[3],13.9 µg/mL
same,MIC,[4],17.4 µg/mL
same,MIC,[5],13.9 µg/mL
same,MIC,[6],557 µg/mL
